According to patent publication US9271957B2, “Methods of treating or preventing degenerative joint conditions, osteoarthritis, cartilage damage, and related disorders in companion animals” (HILL'S PET NUTRITION, INC., priority 2008, dated 2016):

How the values were obtained:
canine bone cells = experiment: Genes related to cartilage metabolism altered by lipoic acid in canine bone cells; type: in vivo, dogs; details: 90 days
cartilage markers [1] = experiment: Serum cartilage (arthritic) markers measured in the blood by ELISA in dogs fed different foods; type: in vivo
cartilage markers [2] = experiment: as above; type: in vivo; details: for CPII: blood, d 0 as covariate
Protocol: Thirty (30) dogs were used to determine the effect of lipoic acid when compared to an AAFCO control food or a test food containing fish oil.
Biomarker Measurements: Serum cartilage markers were measured using ELISA based kits to determine concentrations of cartilage markers. Day 0 was used as a covariate in the analysis to adjust for baseline values.
Table 2 illustrates the change in blood level of arthritic markers in dogs after being fed a control diet compared with dogs fed a control plus fish oil and a control plus lipoic acid for 30 days and measured again at day 90.
Table 6 illustrates arthritic makers measured in blood samples for dogs after being fed a control diet compared with dogs fed a pet food including lipoic acid for 90 days.

[3] = Body fat of dogs fed food containing lipoic acid; type: in vivo; details: dogs fed a food containing lipoic acid
Description: These two markers are known to increase in dogs with osteoarthritis. […] In other words, dogs fed lipoic acid utilized available glucose more efficiently and shifted their metabolism towards mobilization of fat for energy use. […] The following tables show the difference in fat and weight as well as cartilage markers relative to treatment with lipoic acid.

[4] = test system: genes related to cartilage and energy metabolism; experiment: Differential gene expression profile, whole blood RNA on canine 2 Affymetrix genechips; type: in vivo, dogs
Description: A differential gene expression profile was studied between an AAFCO control food, a food containing fish oil, and a food containing lipoic acid. At a minimum of 1.3 fold change, a list of 1212 genes was generated compared to the AAFCO control and 1896 genes compared to the food containing fish oil at d 30.
RNA Extraction: Total RNAs were isolated from whole blood samples using the PAXgene RNA isolation kit. All measurements were done with the canine 2 Affymetrix genechips. For statistical analysis, all measurements were normalized with RMA. All analysis was preformed using Partek. An ANOVA t-test was performed for genes that are differentially expressed between the control and test foods were selected based on p-value cutoff 0.1, fold change >+/−1.3.
Table 4 illustrates the change in genes related to cartilage metabolism and energy metabolism in dogs after being fed a control diet compared with dogs fed a control plus lipoic acid.

Plasma metabolomics = type: in vivo; details: relative to control fed dogs
Protocol: Metabolomics: Plasma metabolites were analyzed and were compared as fold change relative to the control fed dogs.

[5] = vs a similar food without lipoic acid
[6] = lipoic acid vs. control, cartilage metabolism
[7] = lipoic acid vs. control, energy metabolism
[8] = lipoic acid vs. fish oil, cartilage metabolism
[9] = lipoic acid vs. fish oil, energy metabolism

SMILES: O=C(O)CCCC[C@@H]1CCSS1 (racemic) [Lipoic acid, lipoic acid]
- Directional change MMP3 (1582602_at) (canine bone cells): down regulation and Down
- Directional change Prolyl 4-hydroxylase (1600479_at) (canine bone cells): up-regulation and up
- Directional change TIMP2 (1582708_at) (canine bone cells): up-regulation and up
- Change CPII (cartilage markers [1]; Day 30, without covariates): −95.10
- Change CTXII (cartilage markers [1]; Day 30, without covariates): −5.60
- Change CPII (cartilage markers [1]; Day 90, without covariates): −232.70
- Change CTXII (cartilage markers [1]; Day 90, without covariates): −0.59
- CPII (cartilage markers [2]; Day 30): 986.28 ng/mL
- CPII (cartilage markers [2]; Day 90): 848.0 ng/mL
- immune status markers (cartilage markers [2]; after 90 days): decreased
- arthritic markers (i.e., CPII and CTXII) (cartilage markers [2]; after a 30 day treatment period): reduction
- arthritic markers (i.e., CPII and CTXII) (cartilage markers [2]; after a 90 day period): greater reduction
- carboxy-terminal crosslinked telopeptide fragment of type II collagen (cartilage markers [2]; [5]): greater decrease
- type II collagen C-propeptide (cartilage markers [2]; [5]): greater decrease
- Body fat [3]: lost fat
- PDK4 gene expression ([4]; dogs fed lipoic acid): increasing
- glucose transporters gene expression ([4]; dogs fed lipoic acid): upregulation
- Fold change 12-lipooxygenase [4, 6]: −1.3
- Fold change Chondroitan sulfate synthase 1 [4, 6]: 1.4
- Fold change Facilitated glucose transporter 9 [4, 6]: 1.4
- Fold change Prolyl hydroxylase alpha 1 [4, 6]: 1.4
- Fold change Prolyl hydroxylase alpha 2 [4, 6]: 1.3
- Fold change TIMP1 [4, 6]: 1.3
- Fold change chondroitan sulfate proteoglycan 2 (veriscan) [4, 6]: 1.5
- Fold change heparin sulfate N-deacetylase/N-sulfotransferase 2 [4, 6]: 1.3
- Fold change 5′ AMP alpha 1 [4, 7]: 1.3
- Fold change 5′ AMP beta 1 [4, 7]: 1.3
- Fold change 5′ AMP gamma 2 [4, 7]: 1.4
- Fold change Facilitated glucose transporter 1 [4, 7]: 1.3
- Fold change Facilitated glucose transporter 6 [4, 7]: 1.3
- Fold change Fatty acid desaturase 1 [4, 7]: 1.9
- Fold change Hexokinase 3 [4, 7]: 1.3
- Fold change PDK4 [4, 7]: 1.4
- Fold change PPAR gamma [4, 7]: 1.3
- Fold change Succinyl CoA ligase alpha [4, 7]: 1.3
- Fold change 12-lipooxygenase [4, 8]: −1.3
- Fold change ADAMTS-2 [4, 8]: −1.3
- Fold change ADAMTS-10 [4, 8]: −1.3
- Fold change ADAMTS-16 [4, 8]: −1.3
- Fold change Chondroitan sulfate synthase 1 [4, 8]: 1.3
- Fold change Facilitated glucose transporter 9 [4, 8]: 1.4
- Fold change Fibronectin 1 [4, 8]: 1.4
- Fold change Lysyl hydroxylase [4, 8]: 1.3
- Fold change MMP2 [4, 8]: −1.3
- Fold change MMP7 [4, 8]: −1.3
- Fold change N-acetylgalactosaminyl-transferase 1 [4, 8]: 1.3
- Fold change Transforming growth factor beta receptor 1 [4, 8]: 1.3
- Fold change chondroitan sulfate proteoglycan 2 (veriscan) [4, 8]: 1.5
- Fold change 5′ AMP alpha 1 [4, 9]: 1.3
- Fold change 5′ AMP beta 1 [4, 9]: 1.3
- Fold change 5′ AMP gamma 2 [4, 9]: 1.5
- Fold change Facilitated glucose transporter 1 [4, 9]: 1.3
- Fold change Facilitated glucose transporter 6 [4, 9]: 1.4
- Fold change Hexokinase 3 [4, 9]: 1.3
- Fold change PDK4 [4, 9]: 1.6
- Fold change PPAR gamma [4, 9]: 1.3
- Fold change SREBP-1 [4, 9]: −1.3
- Fold change Succinyl CoA ligase alpha [4, 9]: 1.3
- Fold change Succinyl CoA ligase beta [4, 9]: 1.3
- Fold change cAMP responsice element modulator [4, 9]: 1.3
- metabolite hydroxyproline in plasma (Plasma metabolomics): reduced
